# Tests used:
# [1] = Clearance in Sprague-Dawley rat at 1 mg/kg, iv by LC-MS/MS; assay type: ADME, organism-based; settings: in vivo
# Rattus norvegicus [2] = assay: AUC (0 to t) in Sprague-Dawley rat at 1 mg/kg, iv by LC-MS/MS; assay type: ADME, organism-based; settings: in vivo
# Mus musculus [3] = assay: Acute toxicity in C57BL/6 mouse assessed as increase in body weight at 25 to 200 mg/kg, po administered every other day for 14 days measured during compound dosing; assay type: organism-based; settings: in vivo, 336 h
# Mus musculus [4] = assay: Acute toxicity in C57BL/6 mouse assessed as change in lungs to body weight ratio at 25 to 200 mg/kg, po administered every other day for 14 days measured on day 14 post last dose; assay type: organism-based; settings: in vivo, 336 h
# [5] = Effective permeability of the compound at pH 7.4 by PAMPA; assay type: ADME; settings: read-out: Peff
# Mus musculus [6] = assay: Toxicity in C57BL/6 mouse assessed as damage in spleen at 25 to 200 mg/kg, po administered every other day for 14 days measured on day 14 post last dose by H and E staining based assay; assay type: organism-based; settings: in vivo, 336 h
# Mus musculus [7] = assay: Acute toxicity in C57BL/6 mouse assessed as change in liver to body weight ratio at 25 to 200 mg/kg, po administered every other day for 14 days measured on day 14 post last dose; assay type: organism-based; settings: in vivo, 336 h
# [8] = Clearance in Sprague-Dawley rat at 10 mg/kg, po by LC-MS/MS; assay type: ADME, organism-based; settings: in vivo
# Mus musculus [9] = assay: Acute toxicity in C57BL/6 mouse assessed as effect on food intake at 25 to 200 mg/kg, po administered every other day for 14 days measured during compound dosing; assay type: organism-based; settings: in vivo, 336 h
# [10] = Half life in Sprague-Dawley rat at 1 mg/kg, iv by LC-MS/MS; assay type: ADME, organism-based; settings: in vivo
# [11] = Therapeutic index, ratio of compound effect for toxicity in C57BL/6 mouse to compound effect for upregulation of plasma EPO level in C57BL/6 mouse; assay type: organism-based; settings: read-out: TI
# Mus musculus [12] = assay: Acute toxicity in C57BL/6 mouse assessed as change in spleen to body weight ratio at 25 to 200 mg/kg, po administered every other day for 14 days measured on day 14 post last dose; assay type: organism-based; settings: in vivo, 336 h
# [13] = MRT (0 to infinity) in Sprague-Dawley rat at 10 mg/kg, po by LC-MS/MS; assay type: ADME, organism-based; settings: in vivo
# Mus musculus [14] = assay: Acute toxicity in C57BL/6 mouse assessed as apparent signs of toxicity at 25 to 200 mg/kg, po administered every other day for 14 days; assay type: organism-based; settings: in vivo, 336 h
# Mus musculus [15] = assay: Cardiotoxicity in C57BL/6 mouse at 25 to 200 mg/kg, po administered every other day for 14 days measured on day 14 post last dose by H and E staining based assay; assay type: toxicity, organism-based; settings: in vivo, 336 h
# [16] = MRT (0 to infinity) in Sprague-Dawley rat at 1 mg/kg, iv by LC-MS/MS; assay type: ADME, organism-based; settings: in vivo
# [17] = Half life in Sprague-Dawley rat at 10 mg/kg, po by LC-MS/MS; assay type: ADME, organism-based; settings: in vivo
# Rattus norvegicus [18] = assay: AUC (0 to infinity) in Sprague-Dawley rat at 10 mg/kg, po by LC-MS/MS; assay type: ADME, organism-based; design: dose 10 mg/kg, time infinity, route oral; settings: in vivo
# Mus musculus [19] = assay: Hepatotoxicity in C57BL/6 mouse at 25 to 200 mg/kg, po administered every other day for 14 days measured on day 14 post last dose by H and E staining based assay; assay type: toxicity, organism-based; settings: in vivo, 336 h
# Mus musculus [20] = assay: Upregulation of plasma EPO level in C57BL/6 mouse assessed as EPO level at 50 mg/kg, po after 4 hrs by ELISA; assay type: functional
# HUVEC = assay: Cytotoxicity against HUVEC assessed as reduction in cell viability at 10 to 100 uM after 72 hrs by MTT assay; assay type: cell-based; settings: human
# [21] = Lipophilicity, log D of the compound at pH 7.4 by potentiometric titration method; assay type: physicochemical; settings: buffer
# Egl nine homolog 1 [22] = molecular target: T1, Egl nine homolog 1 (Homo sapiens, UniProt Q9GZT9)
# Hep 3B2 = assay: Cytotoxicity against human Hep3B cells assessed as reduction in cell viability at 10 to 100 uM after 72 hrs by MTT assay; assay type: cell-based; settings: hep 3b2, 72 h
# [23] = Cmax in Sprague-Dawley rat at 10 mg/kg, po by LC-MS/MS; assay type: ADME, organism-based; design: dose 10 mg/kg, route oral; settings: in vivo
# L02 = assay: Cytotoxicity against human L02 cells assessed as reduction in cell viability at 10 to 100 uM after 72 hrs by MTT assay; assay type: cell-based; settings: l02, 72 h
# Rattus norvegicus [24] = assay: AUC (0 to infinity) in Sprague-Dawley rat at 1 mg/kg, iv by LC-MS/MS; assay type: ADME, organism-based; design: dose 1 mg/kg, route intravenous, time infinity; settings: in vivo
# Rattus norvegicus [25] = assay: Apparent volume of distribution in Sprague-Dawley rat at 10 mg/kg, po by LC-MS/MS; assay type: ADME, organism-based; settings: in vivo
# Mus musculus [26] = assay: Antianemic activity in C57BL/6 mouse cisplatin-induced anemia model assessed as increase in hemoglobin level at 10 mg/kg, po administered every other day for 30 days relative to control; assay type: functional
# [27] = Apparent volume of distribution in Sprague-Dawley rat at 1 mg/kg, iv by LC-MS/MS; assay type: ADME, organism-based; settings: in vivo, read-out: Vz
# [28] = Dissociation constant, pKa of the compound by potentiometric titration method; assay type: physicochemical
# Mus musculus [29] = assay: Toxicity in C57BL/6 mouse assessed as damage in lungs at 25 to 200 mg/kg, po administered every other day for 14 days measured on day 14 post last dose by H and E staining based assay; assay type: organism-based; settings: in vivo, 336 h
# Mus musculus [30] = assay: Acute toxicity in C57BL/6 mouse assessed as behavioral abnormality at 25 to 200 mg/kg, po administered every other day for 14 days; assay type: organism-based; settings: in vivo, 336 h
# Mus musculus [31] = assay: Nephrotoxicity in C57BL/6 mouse at 25 to 200 mg/kg, po administered every other day for 14 days measured on day 14 post last dose by H and E staining based assay; assay type: toxicity, organism-based; settings: in vivo, 336 h
# [32] = Intrinsic aqueous solubility of the compound at pH 7.4 by potentiometric titration method; assay type: physicochemical; settings: buffer
# Mus musculus [33] = assay: Acute toxicity in C57BL/6 mouse assessed as change in kidney to body weight ratio at 25 to 200 mg/kg, po administered every other day for 14 days measured on day 14 post last dose; assay type: organism-based; settings: in vivo, 336 h
# Rattus norvegicus [34] = assay: AUC (0 to t) in Sprague-Dawley rat at 10 mg/kg, po by LC-MS/MS; assay type: ADME, organism-based; settings: in vivo
# Mus musculus [35] = assay: Antianemic activity in C57BL/6 mouse cisplatin-induced anemia model assessed as increase in hemoglobin level at 25 mg/kg, po administered every other day for 30 days relative to control; assay type: functional
# [36] = Oral bioavailability in Sprague-Dawley rat at 10 mg/kg by LC-MS/MS; assay type: ADME, organism-based; settings: in vivo
# Mus musculus [37] = assay: Acute toxicity in C57BL/6 mouse assessed as change in heart to body weight ratio at 25 to 200 mg/kg, po administered every other day for 14 days measured on day 14 post last dose; assay type: organism-based; settings: in vivo, 336 h
# Egl nine homolog 1 [38] = molecular target: T1, Egl nine homolog 1; remark: listed apart in the source
# [39] = Tmax in Sprague-Dawley rat at 10 mg/kg, po by LC-MS/MS; assay type: ADME, organism-based; settings: in vivo
# HEK293 = assay: Cytotoxicity against HEK293 cells assessed as reduction in cell viability at 10 to 100 uM after 72 hrs by MTT assay; assay type: cell-based; settings: human, hek293, 72 h
# Mus musculus [40] = assay: Acute toxicity in C57BL/6 mouse assessed as effect on growth at 25 to 200 mg/kg, po administered every other day for 14 days; assay type: organism-based; settings: in vivo, 336 h
# T1 sequence (Q9GZT9 whole entry): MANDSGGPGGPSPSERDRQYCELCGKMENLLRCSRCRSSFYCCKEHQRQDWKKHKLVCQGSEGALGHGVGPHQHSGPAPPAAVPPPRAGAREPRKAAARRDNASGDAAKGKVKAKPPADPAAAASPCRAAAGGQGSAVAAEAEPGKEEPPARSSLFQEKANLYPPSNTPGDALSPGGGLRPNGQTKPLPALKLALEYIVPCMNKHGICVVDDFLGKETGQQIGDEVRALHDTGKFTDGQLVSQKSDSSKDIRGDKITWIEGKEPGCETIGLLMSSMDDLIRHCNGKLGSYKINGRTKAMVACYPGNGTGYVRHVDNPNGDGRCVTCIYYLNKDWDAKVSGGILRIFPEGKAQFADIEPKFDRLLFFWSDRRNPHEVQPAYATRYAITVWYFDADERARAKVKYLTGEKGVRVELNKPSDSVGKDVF
compound,measurement,setting,value
O=C(O)CNC(=O)c1ncc(-c2cn(CCCc3ccc(Cl)cc3)nn2)cc1O,clearance,[1],19.4 mL/min/kg
same,AUCt,Rattus norvegicus [2],923 ng·h/mL
same,Activity,Mus musculus [3],Toxic
same,Activity,Mus musculus [4],Non-Toxic
same,Papp,[5],11.5 ×10⁻⁶ cm/s
same,Activity,Mus musculus [6],Non-Toxic
same,Activity,Mus musculus [7],Non-Toxic
same,CL/F,[8],31.2 mL/min/kg
same,Activity,Mus musculus [9],Non-Toxic
same,half-life,[10],1.51 h
same,selectivity ratio,[11],10
same,Activity,Mus musculus [12],Non-Toxic
same,MRT inf,[13],3.28 h
same,Activity,Mus musculus [14],Non-Toxic
same,Activity,Mus musculus [15],Non-Toxic
same,MRT inf,[16],0.623 h
same,half-life,[17],3.07 h
same,AUC,Rattus norvegicus [18],5440 ng·h/mL
same,Activity,Mus musculus [19],Non-Toxic
same,Activity,Mus musculus [20],1300 pg/mL
same,Activity,HUVEC,Non-Toxic
same,logD,[21],2.13
same,IC50,Egl nine homolog 1 [22],62.2 nM
same,Activity,Hep 3B2,Non-Toxic
same,Cmax,[23],1550 ng/mL
same,Activity,L02,Non-Toxic
same,AUC,Rattus norvegicus [24],933 ng·h/mL
same,Vz,Rattus norvegicus [25],8.634 L/kg
same,Activity,Mus musculus [26],61.9%
same,Vd,[27],2.31 L/kg
same,pKa,[28],3.21
same,Activity,Mus musculus [29],Non-Toxic
same,Activity,Mus musculus [30],Non-Toxic
same,Activity,Mus musculus [31],Non-Toxic
same,solubility,[32],1180 µg/mL
same,Activity,Mus musculus [33],Non-Toxic
same,AUCt,Rattus norvegicus [34],4990 ng·h/mL
same,Activity,Mus musculus [35],96.7%
same,bioavailability,[36],54.1%
same,Activity,Mus musculus [37],Non-Toxic
same,IC50,Egl nine homolog 1 [38],1310 nM
same,Tmax,[39],0.917 h
same,Activity,HEK293,Non-Toxic
same,Activity,Mus musculus [40],Non-Toxic
Cc1nc(C(=O)NCC(=O)O)c(O)c2ccc(Oc3ccccc3)cc12 [ROXADUSTAT],Papp,[5],12.7 ×10⁻⁶ cm/s
same,Activity,HUVEC,Non-Toxic
same,logD,[21],3.77
same,Activity,Hep 3B2,Non-Toxic
same,Activity,L02,Non-Toxic
same,Activity,Mus musculus [26],67.7%
same,pKa,[28],3.15
same,solubility,[32],255 µg/mL
same,Activity,Mus musculus [35],92.5%
same,Activity,HEK293,Non-Toxic
O=C(O)CNC(=O)c1ncc(-c2cn(CCc3ccc(Cl)cc3)nn2)cc1O,Activity,HUVEC,Non-Toxic
same,Activity,Hep 3B2,Non-Toxic
same,Activity,L02,Non-Toxic
same,Activity,HEK293,Non-Toxic

# Source: ChEMBL document CHEMBL4118236, “Click Chemistry-Based Discovery of [3-Hydroxy-5-(1 H-1,2,3-triazol-4-yl)picolinoyl]glycines as Orally Active Hypoxia-Inducing Factor Prolyl Hydroxylase Inhibitors with Favorable Safety Profiles for the Treatment of Anemia” (J Med Chem, 2018)
